We go through three molecules from patent US20250154457A1, “T-CELLS FOR ANTI-HIV CAR-T THERAPY AND METHODS OF USE” (City of Hope, priority 2021, published 2025).

Common to all, as to format: cell-based
One data set relates to Jurkat cells. As to the kind of experiment: 6TG selection of shHPRT-N6 CAR expressing Jurkat cells. As to conditions: Jurkat cells, 0, 1, or 3 uM 6TG for four days, trypan blue. The procedure:
(§1) FIGS. 2A-2D. 6TG selection of HPRT repressed CAR T-cells. FIG. 2A. Quantitative PCR analysis of HPRT expression following transfection of shHPRT plasmid. Untransfected Jurkat cells were used as a control. FIG. 2B. N6 CAR (control) or shHPRT-N6 CAR were transduced into Jurkat cells and co-cultured with either gp120 expressing HEK293 cells or HEK293 parental cells for 24 hours. Following incubation, the Jurkat cells were analyzed for CD69 expression by flow cytometry. FIG. 2C.

Data set [1] deals with T-cells. The data set can be described thus: 6TG dose titration and multi-dosing selection of enrichment anti-HIV CAR T-cells. As for the experimental part: The cell counts of the T-cells, in addition to anti-HIV CAR expression percentage were measured over the course of culturing.
In data set [2] the test system is gp160-expressing HEK293 cells. The data set can be described thus: CD69 activation of 6TG enriched anti-HIV CAR Jurkat cells co-cultured with gp160-expressing HEK293 cells. Conditions: 24 hour incubation, 6TG selected vs unselected anti-HIV CAR Jurkat cells. As for the experimental part:
Following a 24 hour incubation, CD69 expression was analyzed.

Data set [3] concerns T-cells. As to the kind of experiment: Growth and phenotype of enrichment anti-HIV CAR T-cells after 6TG selection.
Another data set relates to HPRT. As to the kind of experiment: Quantitative PCR of HPRT expression after transfection of shHPRT plasmid in Jurkat cells. As to conditions: transfected with shHPRT plasmid, FIG. 2A. As for the experimental part:
as §1

The subject of the next data set is CCR5. The data set can be described thus: CCR5 knockdown in Magi.CCR5 reporter cells (PCR and flow cytometry). The source says: FIGS. 5A-5C. Wobble base CCR5 shRNAs functionality. FIG. 5A. Quantitative PCR analysis of MAGI.CCR5 cells transduced with protection CAR (shCCR5w shTat/Rev anti-HIV CAR), compared to mock-transduced cells and cells transduced with conventional anti-HIV CAR without the shRNA. Decreased levels of CCR5 mRNA indicate successful knock-down using the protection CAR. FIG. 5B. CCR5 surface expression on MAGI.CCR5 cells transduced with the protection CAR compared to CCR5 expression on mock-transduced cells and on cells transduced with anti-HIV CAR without the shRNA. FIG. 5C. CCR5 surface expression on T-cells transduced with protection CAR (shCCR5w shTat/Rev anti-HIV CAR), compared to mock-transduced cells and cells transduced with conventional anti-HIV CAR without the shRNA. Decreased levels of CCR5 are indicative of successful knockdown using anti-CCR5 shRNA.
Next, Applicant determined whether the shRNAs were functional. To test the shCCR5, Applicant transfected the protection and conventional CAR into Magi reporter line expressing CCR5 (Magi.CCR5). […] To confirm knock-down of CCR5, Applicant transduced T-cells with protection and conventional anti-HIV CAR constructs and analyzed CCR5 surface expression.
For orientation: In flow cytometry, cells or beads pass a laser one at a time.

Take `Nc1nc(=S)c2[nH]cnc2[nH]1` [6TG, 6-thioguanine]: the “cell counts and viability after 6TG” value with Jurkat cells is “eliminates cells that lack the anti-HPRT shRNA”. The “enrichment of anti-HIV CAR T-cells at 50 nM” value in the data set on T-cells [1] (50 nM 6TG, single dose titration) is listed as “most enrichment potential”. In addition, the “effect on cell counts at 100 nM” value in the data set with T-cells [1] (100 nM 6TG) is recorded as “loss of a number of T-cells transduced with the enrichment anti-HIV CAR construct”. Further, the “effect on cells at 1 M 6TG” value in the data set with T-cells [1] (6TG, data not shown) is “loss of all T-cells”. The “effect on cell counts at 10, 20, and 50 nM” value in the data set with T-cells [1] (10, 20, and 50 nM 6TG) is “exerted toxic effects on the non-transduced T-cells”. Moreover, the “optimized dose of 6TG to enrich CAR T-cells” value in the data set with T-cells [1] (without impacting growth) is recorded as 50 nM. The “activation as assessed by CD69 levels” value in data set [2] is reported as “decrease in activation”. Further, the “growth of anti-HIV CAR T-cells” value in the data set with T-cells [3] (6TG-treated vs not subjected to 6TG) is “equivalent”. In the data set on T-cells [3] (after treatment with 6TG), the “total T-cell growth” value is given as “decreased over the course of culture”. Moreover, the “exhaustion markers (PD-1, Tim3, Lag-3)” value with T-cells [3] (following 6TG treatment) is recorded as “No noticeable changes”.

In the case of “anti-HPRT shRNA: shRNA that downregulates expression of the HPRT gene, SEQ ID NO:12 (GCACUGAAUAGAAAUGGUGGUUCAAGAGAUCACUAUUUCUAUUCAGUGCUU)”, the HPRT expression entry in the data set with HPRT is “robustly repressed”.

For the molecule “shCCR5w: anti-CCR5 shRNA wobble base, SEQ ID NO: 11 (AGUGUCAAGUCCAAUUUGUGGUUCAAGAGAUCAUAGAUUGGACUUGACACUUU)”, the CCR5 knockdown result in the data set with CCR5 is given as “successful in knocking down CCR5”.
